According to PMC9253031, “Redox-sensitive doxorubicin liposome: a formulation approach for targeted tumor therapy” (Scientific Reports, 2022):

Key:
[1] = test system: C26 cell line (murine colon carcinoma cells); assay: MTT cytotoxicity, C26 cells; type: cell-based, mouse; conditions: 48 h treatment
Method: (§1) C26 and NIH-3T3 cell lines were cultured at 37 °C in a 5% CO2/95% air humidified atmosphere in RPMI 1640 and DEMEM media, respectively; the media were supplemented with 10% FCS and 100 U/mL penicillin, and 100 μg/mL streptomycin.
(§2) C26 and NIH-3T3 cells were seeded at 5000 cells/well into 96-well plates. […] After 48 h incubation at 37 °C, the cells were washed with PBS and MTT (10 μL/well MTT and 100 μL/well cell media) was added. After an additional incubation for 4 h at 37 °C, the absorbance of MTT was measured using a microplate reader (Awareness Technology Inc., USA) at 570 nm. Relative cell death (R) was calculated as follows:
(§3) R = 1 − [(A sample − A blank)/(A control − A blank)], where A sample and A control are the absorbances of the cells incubated with the sample solutions and the culture medium as the control group, respectively. A blank is the absorbance of MTT solution in a well without cells. The IC50 values were calculated using CalcuSyn Version 2.0 software (BIOSOFT, UK)[52].

[2] = test system: NIH-3T3 cell line (mouse embryonic fibroblast cells); assay: MTT cytotoxicity, NIH-3T3 cells; type: cell-based; conditions: 48 h treatment
Method: as §1, §2, §3

C26 cells = assay: Dox cellular uptake by spectrofluorometry; type: cell-based, mouse; conditions: 1 and 3 h incubation, compared to Caelyx
Method: C26 cells were seeded at 1 × 10^6 cells/well in 6-well plates and incubated overnight. […] After 1 and 3 h of incubation at 37 °C, cells were washed with cold PBS. Then, acidified isopropyl alcohol (0.9 mL) was added to each well and transferred to a 2 mL vial and stored at 4 °C for 24 h. Samples were centrifuged for 10 min at 14,000 rpm.

[3] = Plasma Dox concentration and pharmacokinetics after i.v. administration; type: in vivo, BALB/c mice; conditions: Dox 10 mg/kg, mice
C26 tumor = assay: Anti-tumor efficacy and survival in mice bearing C26 colon cancer; conditions: single i.v. dose 10 mg/kg Dox

melting point [°C] | SMILES | IC50 (C26) 48 h [1] [mg/L] | IC50 (NIH) 48 h [2] [mg/L] | Cellular uptake of Dox (spectrofluorometry) (C26 cells) | AUC (total area under the plasma concentration-time curve) [3] [µg·h/mL] | Cl (clearance) [3] | MST (median survival time) (C26 tumor) [days] | TGD (tumor growth delay) (C26 tumor) [%] | TTE (time to reach end point) ± SD (C26 tumor; C26 tumor, BALB/c mice, listed as Dox.HCl, 10 mg/kg) [days]
82 | O=C(O)CCCCCCCCC[Se][Se]CCCCCCCCCC(=O)O | – | – | – | – | – | – | – | –
– | COc1cccc2c1C(=O)c1c(O)c3c(c(O)c1C2=O)C[C@@](O)(C(=O)CO)C[C@@H]3O[C@H]1C[C@H](N)[C@H](O)[C@H](C)O1.Cl [Dox, Doxorubicin hydrochloride] | 0.01 ± 0.010 | 0.042 ± 0.013 | highest cellular uptake | 7.20 | 1.38 (mg)/(μg/mL)/h | 33.10 | 10.12 | 32.40 ± 5.94
